Experiment [1] deals with panel of 13 protein kinases. Description: ICKP screening, whole panel of 13 protein kinases. The class given is biochemical, human. Conditions: 1 μM. Here is the method: (§1) FIG. 4 illustrates the studies carried out for compounds 67 and 69. Compounds 67 and 69 (FIG. 4B) were evaluated at the International Center For Kinase Profiling (ICKP, Dundee, Scotland) toward a panel of 13 protein kinases. The results (FIG. 4A) were expressed as the mean percentage of residual activity at 1 μM concentration (duplicate assays). Small disks: ≥90%, larger disk: 59%, for both compounds. The tree was generated using the Kinome Render software, and the illustration reproduced courtesy of Cell Signaling Technology, Inc. (www.cellsignal.com) Chartier et al PeerJ 2013, 1:e126.
(§2) Results are expressed as the mean percentage of residual activity at 10 μM (Table 3) or 1 μM (Table 4). They are illustrated on FIGS. 3 and 4.
(§3) The selectivity of compound 69 was evaluated at 1 μM toward another panel containing all four p38 MAPK isoforms, ERK1, ERK2 as well as other protein kinases close to p38α MAPK in the kinome phylogenetic tree (FIG. 4, Table 4). […] Its IC50 toward p38α MAPK was determined, showing a value in the micromolar range (IC50=3.0±0.1 μM).

For experiment [2], the target named is JNK1 (Homo sapiens (Human), UniProt P45983). The experiment in a line: ICKP protein kinase panel screening. The class given is biochemical. The note with it: 1 μM, duplicate assays, read-out: mean % residual activity. Here is the method: (§4) FIG. 3 illustrates the human kinome. Compound 69 was evaluated at the International Center For Kinase Profiling (ICKP, Dundee, Scotland) toward a panel of 50 protein kinases that provide a representative sampling of the human kinome. The results were expressed as the mean percentage of residual activity at 10 μM concentration (duplicate assays). Small disks: ≥65%, larger disk: 19%. The black square indicates the kinome region containing protein kinases evaluated in a second screening (FIG. 4, Table 4). The tree was generated using the Kinome Render software, and the illustration reproduced courtesy of Cell Signaling Technology, Inc. (www.cellsignal.com) Chartier et al PeerJ 2013, 1:e126.
as §1, §2
(§5) Studies were undertaken to identify the possible biological target(s) of compound 69. The activation in neurons of PK such as PKCγ, ERK or p38 MAPK can contribute to pain hypersensitivity. Therefore, it was decided to screen compound 69 toward a panel of 50 PKs that provide a representative sampling of the human kinome (FIG. 3, Table 3) (Biochem. J. 2007, 408, 297-315). In this panel, p38α MAPK was identified as the privileged target, with 19% of kinase residual activity at 10 μM compound concentration.
as §3

The target in experiment [3] is p38a MAPK (Homo sapiens (Human), UniProt Q16539). Description: ICKP protein kinase panel screening. The class given is biochemical. The note with it: 1 μM, duplicate assays, read-out: mean % residual activity. As for the experimental part:
as §4, §1, §2, §5, §3

In experiment [4] the target is p38α MAPK (Homo sapiens (Human), UniProt Q16539). Description: p38 alpha IC50. The class given is biochemical. Here is the method:
as §5, §3

For experiment [5], the system named is inflammatory MA (face CFA model). The experiment in a line: Face Complete Freund's Adjuvant (CFA) model of inflammatory mechanical allodynia. The class given is in vivo. Conditions: rat, intracisternal 5 μL at 100 μM. As for the experimental part:
FIG. 1 illustrates the results obtained by the intracisternal application of compounds 19-24, 66-72 and 74-82. These compounds prevent face MA in a rat model of inflammatory pain (Complete Freund's Adjuvant (CFA), n=4-6 rats for each compound). For this assay, compounds (5 μL at 100 μM) or control vehicle were intra-cisternally administred 30 min before CFA injection.
Face Complete Freund's Adjuvant (CFA) Model.
CFA (Becton Dickinson) was dissolved in saline solution containing Tween 80 and paraffin oil and conserved at 4° C. For the behavioral tests, animals were briefly (<2 min) anesthetized using a mask with 2% isoflurane and received a subcutaneous injection of 25 μL of CFA (2.5 mg/kg) solution into the right vibrissa pad using a 27 Ga needle coupled to a 25 μL Hamilton syringe, as described previously. After injection, animals were awakened from anesthesia and placed in the behavioral experimental room, followed by a 120 min mechanical testing period.
Intracisternal Injection:
For investigating the effects of synthetized compounds upon mechanical allodynia, animals were briefly (<2 min) anesthetized using a mask with 2% isoflurane and received an intracisternal injection of 5 μL of compound (100 μM) or vehicle alone (saline+1% DMSO) using a 10 μL Hamilton syringe. After recovery (<2 min), rats were placed in an observation field (0.6×0.6 m square) under red light for a period test. 6-g von Frey filament was gently applied every 15 or 30 min onto the orofacial region by a first experimenter. The behavioral responses were observed and quantified by a second experimenter (see below).
Behavioral Responses to Normally Innocuous (6-g Von Frey Filament) Mechanical Stimulation.
The behavioral responses procedure was previously developed by Vos et al. 1994. A rat's response to mechanical stimulation consisted of one or more of the following elements: (1) detection, rat turn head toward stimulus; (2) withdrawal reaction, rat pull paw away or turn head away or pull it briskly backward when stimulation is applied (a withdrawal reaction is assumed to include a detection element preceding the head withdrawal and therefore consists of two responses elements); (3) escape/attack, rats avoid further contact with the stimulus, either passively by moving their bodies away from the stimulus, or actively by attacking the tip of the […]; (4) asymmetric grooming, rats display an uninterrupted series of at least three wash strokes directed to the stimulated area.
The in vivo efficacy of some compounds was evaluated on a rat model of inflammatory MA (face CFA model; Alba-Delgado et al J. Neurosci. 2018, 38, 10489-10504) (FIG. 1). After receiving a subcutaneous injection of 25 μL of CFA (2.5 mg/kg) into the right vibrissa pad, rats develop a MA that lasts days. […] In this model of inflammatory MA, MA was suppressed in compound 69 treated rats, in comparison to animals treated with vehicle (FIG. 2A).

Experiment [6] deals with p38g MAPK (Homo sapiens (Human), UniProt P53778). The experiment in a line: ICKP protein kinase panel screening. The class given is biochemical. The note with it: duplicate assays, read-out: mean % residual activity. As for the experimental part: as §1, §2, §3
Experiment [7] deals with ERK5 (Homo sapiens (Human), UniProt Q13164). Description: ICKP protein kinase panel screening. Format: biochemical. Conditions: duplicate assays, read-out: mean % residual activity. As for the experimental part:
as §1, §2, §3

Experiment [8] concerns the target CDK2-Cyclin A (Homo sapiens (Human), UniProt P24941). The experiment in a line: ICKP protein kinase panel screening. The class given is biochemical. The note with it: duplicate assays, read-out: mean % residual activity. As for the experimental part:
as §1, §2, §3

In experiment [9] the target is JNK3 (Homo sapiens (Human), UniProt P53779). Description: ICKP protein kinase panel screening. Format: biochemical. Conditions: duplicate assays, read-out: mean % residual activity. As for the experimental part:
as §1, §2, §3

The target in experiment [10] is ERK1 (Homo sapiens (Human), UniProt P27361). Description: ICKP protein kinase panel screening. The class given is biochemical. The note with it: duplicate assays, read-out: mean % residual activity. As for the experimental part:
as §1, §2, §3

Experiment [11] deals with p38d MAPK (Homo sapiens (Human), UniProt O15264). The experiment in a line: ICKP protein kinase panel screening. Conditions: duplicate assays, read-out: mean % residual activity. The class given is biochemical. Here is the method: as §1, §2, §3
Experiment [12] addresses ERK8 (Homo sapiens (Human), UniProt Q8TD08). The experiment in a line: ICKP protein kinase panel screening. Format: biochemical. The note with it: duplicate assays, read-out: mean % residual activity. As for the experimental part: as §1, §2, §3
Experiment [13] concerns the target CDK5 (Homo sapiens (Human), UniProt Q00535). The experiment in a line: ICKP protein kinase panel screening. The class given is biochemical. The note with it: duplicate assays, read-out: mean % residual activity. As for the experimental part:
as §1, §2, §3

For experiment [14], the target named is JNK2 (Homo sapiens (Human), UniProt P45984). Description: ICKP protein kinase panel screening. The note with it: duplicate assays, read-out: mean % residual activity. The class given is biochemical. Here is the method:
as §1, §2, §3

Experiment [15] has as its target ERK2 (Homo sapiens (Human), UniProt P28482). The experiment in a line: ICKP protein kinase panel screening. Format: biochemical. The note with it: duplicate assays, read-out: mean % residual activity. Here is the method: as §1, §2, §3
The target of experiment [16] is p38b MAPK (Homo sapiens (Human), UniProt Q15759). Description: ICKP protein kinase panel screening. The class given is biochemical. The note with it: duplicate assays, read-out: mean % residual activity. Here is the method: as §1, §2, §3

“Also recorded” adds a separate entry of the source. Read-outs that look alike come from different tables or passages of the source. A value given as a limit tells only on which side of the number the result lay.

p38α MAPK, sequence (Q16539 whole entry): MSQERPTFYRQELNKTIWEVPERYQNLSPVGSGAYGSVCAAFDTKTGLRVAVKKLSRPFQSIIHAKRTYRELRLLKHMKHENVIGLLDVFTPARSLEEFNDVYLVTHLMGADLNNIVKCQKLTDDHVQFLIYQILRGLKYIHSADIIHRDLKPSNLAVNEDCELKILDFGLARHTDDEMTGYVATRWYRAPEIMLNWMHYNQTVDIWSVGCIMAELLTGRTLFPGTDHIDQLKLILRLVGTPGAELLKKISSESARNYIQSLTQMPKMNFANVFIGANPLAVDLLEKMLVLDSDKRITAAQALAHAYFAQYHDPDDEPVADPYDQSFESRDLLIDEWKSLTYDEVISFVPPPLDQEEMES
ERK1, sequence (P27361 whole entry): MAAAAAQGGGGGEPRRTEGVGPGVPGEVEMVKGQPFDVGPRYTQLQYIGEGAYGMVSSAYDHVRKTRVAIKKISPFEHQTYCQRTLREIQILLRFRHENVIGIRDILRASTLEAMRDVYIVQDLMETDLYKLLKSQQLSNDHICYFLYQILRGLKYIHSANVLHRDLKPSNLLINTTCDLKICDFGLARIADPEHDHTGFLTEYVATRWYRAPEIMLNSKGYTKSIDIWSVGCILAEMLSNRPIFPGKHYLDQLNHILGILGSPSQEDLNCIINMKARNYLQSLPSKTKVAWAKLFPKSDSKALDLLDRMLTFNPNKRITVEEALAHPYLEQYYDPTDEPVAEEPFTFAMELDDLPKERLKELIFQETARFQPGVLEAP
ERK2, sequence (P28482 whole entry): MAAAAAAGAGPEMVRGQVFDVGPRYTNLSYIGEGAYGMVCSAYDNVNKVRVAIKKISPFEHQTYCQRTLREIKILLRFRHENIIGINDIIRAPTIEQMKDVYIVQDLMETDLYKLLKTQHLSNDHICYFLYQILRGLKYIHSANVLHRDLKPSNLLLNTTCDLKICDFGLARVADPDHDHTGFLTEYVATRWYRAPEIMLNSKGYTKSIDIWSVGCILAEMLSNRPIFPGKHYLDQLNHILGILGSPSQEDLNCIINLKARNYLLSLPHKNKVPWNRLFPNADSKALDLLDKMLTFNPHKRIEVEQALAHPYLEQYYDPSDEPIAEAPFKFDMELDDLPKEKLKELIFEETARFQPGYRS
JNK1, sequence (P45983 whole entry): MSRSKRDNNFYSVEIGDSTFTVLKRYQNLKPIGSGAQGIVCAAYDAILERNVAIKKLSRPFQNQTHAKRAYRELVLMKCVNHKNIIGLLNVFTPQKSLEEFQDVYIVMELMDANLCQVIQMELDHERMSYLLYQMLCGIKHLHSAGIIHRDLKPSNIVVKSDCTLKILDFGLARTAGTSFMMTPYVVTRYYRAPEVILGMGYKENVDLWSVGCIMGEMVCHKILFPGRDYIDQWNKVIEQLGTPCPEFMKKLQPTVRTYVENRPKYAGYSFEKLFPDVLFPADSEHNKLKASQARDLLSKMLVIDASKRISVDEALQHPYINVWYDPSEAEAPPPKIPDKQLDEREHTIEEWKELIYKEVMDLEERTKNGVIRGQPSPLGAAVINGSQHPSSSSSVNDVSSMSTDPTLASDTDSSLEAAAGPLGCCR
CDK5, sequence (Q00535 whole entry): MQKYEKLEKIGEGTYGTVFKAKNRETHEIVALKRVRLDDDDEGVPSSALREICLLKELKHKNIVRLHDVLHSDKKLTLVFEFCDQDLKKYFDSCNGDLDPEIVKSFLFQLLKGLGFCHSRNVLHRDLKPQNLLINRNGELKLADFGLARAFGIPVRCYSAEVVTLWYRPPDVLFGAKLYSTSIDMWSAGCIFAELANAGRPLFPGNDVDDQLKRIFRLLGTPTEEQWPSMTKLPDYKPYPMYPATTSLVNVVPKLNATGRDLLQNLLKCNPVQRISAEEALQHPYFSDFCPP
CDK5, sequence (Q15078 whole entry partner): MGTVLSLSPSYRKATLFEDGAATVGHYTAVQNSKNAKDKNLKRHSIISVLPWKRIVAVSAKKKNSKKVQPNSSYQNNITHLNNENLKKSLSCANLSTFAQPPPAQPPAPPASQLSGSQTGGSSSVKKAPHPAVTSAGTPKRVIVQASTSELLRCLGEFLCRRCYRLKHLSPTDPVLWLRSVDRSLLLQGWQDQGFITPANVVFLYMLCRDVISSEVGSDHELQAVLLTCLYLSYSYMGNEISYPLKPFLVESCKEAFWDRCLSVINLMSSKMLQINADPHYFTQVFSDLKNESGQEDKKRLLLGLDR
p38d MAPK, sequence (O15264 whole entry): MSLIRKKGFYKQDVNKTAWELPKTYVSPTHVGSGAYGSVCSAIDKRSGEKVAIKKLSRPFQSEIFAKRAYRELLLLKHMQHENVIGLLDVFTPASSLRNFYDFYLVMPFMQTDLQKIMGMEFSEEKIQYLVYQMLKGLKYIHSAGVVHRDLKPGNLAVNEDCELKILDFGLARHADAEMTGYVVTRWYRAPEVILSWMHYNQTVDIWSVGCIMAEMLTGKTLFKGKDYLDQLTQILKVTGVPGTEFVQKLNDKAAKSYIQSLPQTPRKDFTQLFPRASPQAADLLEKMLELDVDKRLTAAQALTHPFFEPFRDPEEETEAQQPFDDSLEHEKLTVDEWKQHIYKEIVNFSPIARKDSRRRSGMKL
JNK2, sequence (P45984 whole entry): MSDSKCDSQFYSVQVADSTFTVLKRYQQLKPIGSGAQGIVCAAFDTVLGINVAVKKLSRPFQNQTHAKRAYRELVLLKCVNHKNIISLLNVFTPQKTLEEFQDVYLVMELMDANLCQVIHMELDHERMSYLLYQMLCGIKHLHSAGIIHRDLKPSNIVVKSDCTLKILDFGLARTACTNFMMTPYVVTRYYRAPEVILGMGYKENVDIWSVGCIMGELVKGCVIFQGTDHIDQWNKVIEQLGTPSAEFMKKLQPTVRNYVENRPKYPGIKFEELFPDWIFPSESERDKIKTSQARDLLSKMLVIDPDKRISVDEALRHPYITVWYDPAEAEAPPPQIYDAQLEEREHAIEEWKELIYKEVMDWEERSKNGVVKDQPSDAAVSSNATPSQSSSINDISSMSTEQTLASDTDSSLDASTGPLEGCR
p38b MAPK, sequence (Q15759 whole entry): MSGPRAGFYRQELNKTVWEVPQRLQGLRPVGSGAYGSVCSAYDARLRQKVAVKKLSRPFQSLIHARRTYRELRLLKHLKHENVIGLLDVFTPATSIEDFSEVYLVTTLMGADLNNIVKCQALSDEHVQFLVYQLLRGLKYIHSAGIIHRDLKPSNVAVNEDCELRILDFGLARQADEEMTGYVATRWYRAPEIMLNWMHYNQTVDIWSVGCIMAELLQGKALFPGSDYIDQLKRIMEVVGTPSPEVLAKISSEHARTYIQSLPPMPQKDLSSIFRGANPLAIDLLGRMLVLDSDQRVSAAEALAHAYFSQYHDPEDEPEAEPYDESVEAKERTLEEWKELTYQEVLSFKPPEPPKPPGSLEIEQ
ERK5, sequence (Q13164 whole entry): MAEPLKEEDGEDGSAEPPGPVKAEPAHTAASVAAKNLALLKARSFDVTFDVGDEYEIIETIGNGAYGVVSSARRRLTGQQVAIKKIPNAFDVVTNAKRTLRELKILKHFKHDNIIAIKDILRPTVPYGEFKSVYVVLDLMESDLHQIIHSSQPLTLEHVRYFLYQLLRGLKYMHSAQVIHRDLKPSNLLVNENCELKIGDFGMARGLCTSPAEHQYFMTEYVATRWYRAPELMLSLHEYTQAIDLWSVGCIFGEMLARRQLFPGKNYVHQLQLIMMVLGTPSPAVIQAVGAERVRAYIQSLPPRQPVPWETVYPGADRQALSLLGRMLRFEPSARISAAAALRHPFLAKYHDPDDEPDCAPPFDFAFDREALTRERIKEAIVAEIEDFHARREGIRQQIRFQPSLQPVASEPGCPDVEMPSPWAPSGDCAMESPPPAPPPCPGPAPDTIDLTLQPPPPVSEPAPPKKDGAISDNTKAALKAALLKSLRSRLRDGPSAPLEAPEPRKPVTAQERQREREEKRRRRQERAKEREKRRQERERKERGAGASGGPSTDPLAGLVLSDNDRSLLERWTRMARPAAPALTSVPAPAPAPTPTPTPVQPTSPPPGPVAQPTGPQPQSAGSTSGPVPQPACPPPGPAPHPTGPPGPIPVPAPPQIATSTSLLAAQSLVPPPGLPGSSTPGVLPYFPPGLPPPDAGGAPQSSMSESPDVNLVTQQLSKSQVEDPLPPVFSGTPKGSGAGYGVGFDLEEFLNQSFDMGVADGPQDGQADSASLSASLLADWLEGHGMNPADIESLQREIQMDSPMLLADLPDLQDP
p38a MAPK, sequence (Q16539 whole entry): as the sequence (Q16539 whole entry) above
JNK3, sequence (P53779 whole entry): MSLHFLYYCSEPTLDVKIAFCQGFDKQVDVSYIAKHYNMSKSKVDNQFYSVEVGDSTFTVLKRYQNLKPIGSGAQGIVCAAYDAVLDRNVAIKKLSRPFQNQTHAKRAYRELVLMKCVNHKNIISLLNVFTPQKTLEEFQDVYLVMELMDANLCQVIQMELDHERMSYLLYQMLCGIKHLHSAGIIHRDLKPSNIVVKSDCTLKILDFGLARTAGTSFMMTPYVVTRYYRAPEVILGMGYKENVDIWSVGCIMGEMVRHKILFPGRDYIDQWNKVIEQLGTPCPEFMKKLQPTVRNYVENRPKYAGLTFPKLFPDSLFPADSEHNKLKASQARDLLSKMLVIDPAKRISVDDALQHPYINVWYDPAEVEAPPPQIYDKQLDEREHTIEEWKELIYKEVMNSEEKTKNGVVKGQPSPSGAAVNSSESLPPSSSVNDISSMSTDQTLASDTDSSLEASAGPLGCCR

For the molecule `O=c1[nH]cc(Nc2ccccc2)cc1-c1cccc2[nH]ccc12` [Compound 67, 3-(1H-Indol-4-yl)-5-(phenylamino)pyridin-2(1H)-one], in experiment [1] (all kinases except p38α MAPK), the “mean percentage of residual activity, other kinases of the panel (small disks)” value was ≥ 90%. Further, the “selectivity for p38α MAPK over the other protein kinases incl. p38 isoforms” value in experiment [1] (panel of 13 kinases) is on record as “same selectivity profile; also recorded: selective p38α MAPK inhibitor”. Besides, the remaining activity at 1 µM in [2] was 94%; in [3], 59%; in experiment [6], 107%; in [7] it was 113%; in experiment [8], 111%; in experiment [9], 98%. Moreover, the remaining activity at 1 µM in experiment [10] is 122%; in experiment [11] it was 113%; in experiment [12], 128%; in experiment [13], 101%; in experiment [14], 103%; in [15], 108%. In addition, the remaining activity at 1 µM in experiment [16] was 112%. The IC50 in experiment [4] (p38 alpha, read-out: Mean IC50) was found to be 3.03 µM; in experiment [4] (read-out: IC50 toward p38α MAPK), 3 ± 0.1 µM. Further, in experiment [5] (30 min before CFA), the “prevention of inflammatory MA (allodynic score, 6-g von Frey filament)” value was “strong anti-allodynic activity; also recorded: most active”. The “inhibition of inflammatory MA” value in experiment [5] (30 min before CFA injection) came out at 98%.

Usually IC50 stands for the concentration needed to halve the response being measured.
